ChEMBL document CHEMBL5390216, “Development of small molecule inhibitors of natural killer group 2D receptor (NKG2D)” (Bioorg Med Chem Lett, 2023)

Key:
NKGD2-MICA = molecular target: T1, NKGD2-MICA (Homo sapiens, UniProt P26718); assay: Inhibition of NKG2D (unknown origin)/MICA (unknown origin) protein-protein interaction by cell-based TR-FRET assay
T1 sequence (P26718 whole entry): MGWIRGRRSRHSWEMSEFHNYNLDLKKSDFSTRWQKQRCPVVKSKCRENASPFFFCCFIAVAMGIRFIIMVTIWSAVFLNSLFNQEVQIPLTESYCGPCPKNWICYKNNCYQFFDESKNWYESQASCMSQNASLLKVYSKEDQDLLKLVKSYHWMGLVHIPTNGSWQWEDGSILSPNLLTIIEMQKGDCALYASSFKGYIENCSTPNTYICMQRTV
T1 sequence (Q29983 whole entry): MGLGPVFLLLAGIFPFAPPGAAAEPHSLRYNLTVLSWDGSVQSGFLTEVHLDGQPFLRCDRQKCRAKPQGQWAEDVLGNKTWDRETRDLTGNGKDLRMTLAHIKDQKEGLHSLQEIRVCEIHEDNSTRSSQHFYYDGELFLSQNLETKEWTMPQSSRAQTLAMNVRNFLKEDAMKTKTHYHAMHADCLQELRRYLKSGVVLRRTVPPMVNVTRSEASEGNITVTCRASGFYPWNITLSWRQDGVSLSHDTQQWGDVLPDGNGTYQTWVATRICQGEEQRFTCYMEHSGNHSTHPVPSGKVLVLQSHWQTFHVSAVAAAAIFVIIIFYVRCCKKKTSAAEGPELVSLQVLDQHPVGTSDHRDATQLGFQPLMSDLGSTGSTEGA

NKGD2-ULBP6 = molecular target: T2, NKGD2-ULBP6 (Homo sapiens, UniProt P26718); assay: Inhibition of NKG2D (unknown origin)/ULBP6 (unknown origin) protein-protein interaction by cell-based TR-FRET assay
T2 sequence (P26718 whole entry): T1 sequence (P26718 whole entry)
T2 sequence (Q5VY80 whole entry): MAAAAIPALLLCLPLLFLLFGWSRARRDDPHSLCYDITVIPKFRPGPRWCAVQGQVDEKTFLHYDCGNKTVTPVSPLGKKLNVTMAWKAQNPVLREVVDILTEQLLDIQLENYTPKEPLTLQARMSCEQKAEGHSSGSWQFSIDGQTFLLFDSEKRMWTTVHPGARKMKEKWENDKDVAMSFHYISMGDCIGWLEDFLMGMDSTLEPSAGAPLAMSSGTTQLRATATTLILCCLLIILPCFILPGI

| IC50 (NKGD2-MICA) [nM] | IC50 (NKGD2-ULBP6) [nM] | SMILES |
| --- | --- | --- |
| 4000 | 8700 | O=C(NC(C(=O)N1CCC[C@@H]1CO)c1cccc(C(F)(F)F)c1)c1ccccc1-c1ccc(C(F)(F)F)cc1 (stereo partly specified) |
| > 20000 | > 20000 | CN(C)C(=O)C(NC(=O)c1ccc(-c2ccc(C(F)(F)F)cc2)cc1)c1cccc(C(F)(F)F)c1 (stereo unspecified) |
| > 20000 | > 20000 | CN(C)C(=O)C(C)(NC(=O)c1ccccc1-c1ccc(C(F)(F)F)cc1)c1cccc(C(F)(F)F)c1 (stereo unspecified) |
| > 20000 | > 20000 | CN(C)C(=O)C(NC(=O)c1cccc(-c2ccc(C(F)(F)F)cc2)c1)c1cccc(C(F)(F)F)c1 (stereo unspecified) |
| 200 | 400 | CN(C)C(=O)[C@@H](NC(=O)c1cnccc1-c1ccc(C(F)(F)F)cc1)c1ccc(F)c(C(F)(F)F)c1 |
| > 20000 | > 20000 | CN(C)C(=O)C(NC(=O)c1ccccc1)c1cccc(C(F)(F)F)c1 (stereo unspecified) |
| 100 | 300 | CN(C)C(=O)[C@@H](NC(=O)c1cnccc1-c1ccc(C(F)(F)F)cc1)c1ccc(Cl)c(C(F)(F)F)c1 |
| 100 | 200 | CN(C)C(=O)[C@@H](NC(=O)c1cnccc1-c1ccc(C(F)(F)F)cc1)c1cc(Cl)c(Cl)c(C(F)(F)F)c1 |
| 500 |  | CN(C)C(=O)[C@@H](NC(=O)c1ccccc1-c1ccc(C(F)(F)F)cc1)c1ccc(Cl)c(C(F)(F)F)c1 |
| 100 | 400 | Cc1cc([C@H](NC(=O)c2cnccc2-c2ccc(C(F)(F)F)cc2)C(=O)N(C)C)cc(C(F)(F)F)c1 |
| 1600 | 3100 | O=C(N[C@H](C(=O)N1C[C@@H]2[C@H](CO)[C@@H]2C1)c1cccc(C(F)(F)F)c1)c1ccccc1-c1ccc(C(F)(F)F)cc1 |
| > 20000 | > 20000 | CN(C)C(=O)C(NS(=O)(=O)c1ccccc1-c1ccc(C(F)(F)F)cc1)c1cccc(C(F)(F)F)c1 (stereo unspecified) |
| > 20000 | > 20000 | O=C(NCc1cccc(C(F)(F)F)c1)c1ccccc1-c1ccc(C(F)(F)F)cc1 |
| 900 | 2400 | CN(C)C(=O)[C@@H](NC(=O)c1cc(-c2nnnn2C)ccc1-c1ccc(C(F)(F)F)cc1)c1cccc(C(F)(F)F)c1 |
| 200 | 400 | CN(C)C(=O)[C@@H](NC(=O)c1cnccc1-c1ccc(C(F)(F)F)cc1)c1ccc(Cl)c(Cl)c1 |
| 500 | 1500 | CN(C)C(=O)[C@@H](NC(=O)c1cc(-c2nnn[nH]2)ccc1-c1ccc(C(F)(F)F)cc1)c1cccc(C(F)(F)F)c1 |
| 1600 | 4800 | CN(C)C(=O)[C@@H](NC(=O)c1ccncc1-c1ccc(C(F)(F)F)cc1)c1cccc(C(F)(F)F)c1 |
| > 20000 | > 20000 | CN(C)C(=O)CNC(=O)c1ccccc1-c1ccc(C(F)(F)F)cc1 |
| 300 | 800 | Cc1ccc([C@H](NC(=O)c2cnccc2-c2ccc(C(F)(F)F)cc2)C(=O)N(C)C)cc1C(F)(F)F |
| 1000 | 3800 | CN(C)C(=O)[C@@H](NC(=O)c1ncccc1-c1ccc(C(F)(F)F)cc1)c1cccc(C(F)(F)F)c1 |
| 1100 | 3100 | O=C(N[C@H](C(=O)N1C[C@@H]2[C@@H](CO)[C@@H]2C1)c1cccc(C(F)(F)F)c1)c1ccccc1-c1ccc(C(F)(F)F)cc1 |
| 1200 | 2700 | CN(C)C(=O)[C@@H](NC(=O)c1ccccc1-c1ccc(C(F)(F)F)cc1)c1cccc(C(F)(F)F)c1 |
| 200 | 700 | CN(C)C(=O)[C@@H](NC(=O)c1cnccc1-c1ccc(C(F)(F)F)cc1)c1cc(F)cc(C(F)(F)F)c1 |

| IC50 (NKGD2-MICA) [nM] | IC50 (NKGD2-ULBP6) [nM] | SMILES |
| --- | --- | --- |
| 1800 | 4200 | CN(C)C(=O)[C@@H](NC(=O)c1ccccc1-c1ccc(C(F)(F)F)cc1)c1cccc(C2CC2)c1 |
| 200 | 500 | CN(C)C(=O)[C@@H](NC(=O)c1cnccc1-c1ccc(C(F)(F)F)cc1)c1cc(C(F)(F)F)cc(C(F)(F)F)c1 |
| 300 | 700 | CN(C)C(=O)[C@@H](NC(=O)c1cc(-c2ccnn2C)ccc1-c1ccc(C(F)(F)F)cc1)c1cccc(C(F)(F)F)c1 |
| > 20000 | > 20000 | CN(C)C(=O)C(NC(=O)c1ccccc1-c1ccccc1)c1cccc(C(F)(F)F)c1 (stereo unspecified) |
| 400 | 1500 | CN(C)C(=O)[C@@H](NC(=O)c1nnccc1-c1ccc(C(F)(F)F)cc1)c1cccc(C(F)(F)F)c1 |
| 400 | 600 | Cc1n[nH]c(C)c1-c1ccc(-c2ccc(C(F)(F)F)cc2)c(C(=O)N[C@H](C(=O)N(C)C)c2cccc(C(F)(F)F)c2)c1 |
| 1600 | 3400 | CN(C)C(=O)[C@@H](NC(=O)c1ccccc1-c1ccc(C(F)(F)F)cc1)c1cccc(N2CC(CC(F)(F)F)C2)c1 |
| 400 | 1400 | CN(C)C(=O)[C@@H](NC(=O)c1cnccc1-c1ccc(C(F)(F)F)cc1)c1cccc(C(F)(F)F)c1 |
| 700 | 1700 | CN(C)C(=O)[C@@H](NC(=O)c1cc(C(=O)NS(C)(=O)=O)ccc1-c1ccc(C(F)(F)F)cc1)c1cccc(C(F)(F)F)c1 |
| > 20000 | > 20000 | CC1(C)C[C@H](CO)N(C(=O)C(NC(=O)c2ccccc2-c2ccc(C(F)(F)F)cc2)c2cccc(C(F)(F)F)c2)C1 (stereo partly specified) |
| 100 | 200 | CN(C)C(=O)[C@@H](NC(=O)c1cnccc1-c1ccc(C(F)(F)F)cc1)c1cc(Cl)cc(C(F)(F)F)c1 |
| 3300 | 5800 | CN(C)C(=O)[C@@H](NC(=O)c1ccccc1-c1ccc(C(F)(F)F)cc1)c1ccc(Cl)cc1 |
| 10500 | > 20000 | O=C(NC(C(=O)N1CC[C@H](CO)C1)c1cccc(C(F)(F)F)c1)c1ccccc1-c1ccc(C(F)(F)F)cc1 (stereo partly specified) |
| > 20000 | > 20000 | CN(C)C(=O)C(c1cccc(C(F)(F)F)c1)N(C)C(=O)c1ccccc1-c1ccc(C(F)(F)F)cc1 (stereo unspecified) |
| 14500 | > 20000 | O=C(NC(C(=O)N1CCC[C@H]1CO)c1cccc(C(F)(F)F)c1)c1ccccc1-c1ccc(C(F)(F)F)cc1 (stereo partly specified) |
| 900 | 2800 | Cc1n[nH]cc1-c1ccc(-c2ccc(C(F)(F)F)cc2)c(C(=O)NC(C(=O)N(C)C)c2cccc(C(F)(F)F)c2)c1 (racemic) |
| 500 | 1100 | CN(C)C(=O)C(NC(=O)c1cc(-c2ccnn2C2COC2)ccc1-c1ccc(C(F)(F)F)cc1)c1cccc(C(F)(F)F)c1 (racemic) |
| 2500 | 5100 | O=C(NC(C(=O)N1CCCC1)c1cccc(C(F)(F)F)c1)c1ccccc1-c1ccc(C(F)(F)F)cc1 (racemic) |
| 3400 | 8200 | O=C(NC(C(=O)N1CCC1)c1cccc(C(F)(F)F)c1)c1ccccc1-c1ccc(C(F)(F)F)cc1 (racemic) |
| > 20000 | > 20000 | CN(C)C(=O)C(NC(=O)c1cncnc1-c1ccc(C(F)(F)F)cc1)c1cccc(C(F)(F)F)c1 (racemic) |
| 2200 | 5000 | CN(C)C(=O)C(NC(=O)c1ccccc1-c1ccc(C(F)(F)F)cc1)c1cccc(C(F)(F)F)c1 (racemic) |
| > 20000 | > 20000 | CN(C)C(=O)C(NC(=O)c1cccnc1-c1ccc(C(F)(F)F)cc1)c1cccc(C(F)(F)F)c1 (racemic) |
| > 20000 | > 20000 | CN(C)C(=O)[C@@H](NC(=O)c1ccccc1-c1ccc(C(F)(F)F)cc1)c1ccccc1 (racemic) |
